# From patent publication US20230293488A1, “COMPOSITIONS AND METHODS OF USE OF ANTIBACTERIAL DRUG COMBINATIONS” (priority 2015, published 2023)
# Columns and labels:
# [1] = system: MRSA N315; test: MIC assay and FICI synergy determination (checkerboard); type: cell-based, Staphylococcus aureus; conditions: for MIC: Staphylococcus aureus, MRSA, read-out: MIC in MRSA N315
# Procedure: (§1) Microbiological Studies: MRSA N315 was a gift from Dr. Steven Gill, University of Rochester, Rochester, NY, USA. S. aureus ATCC 29213 was acquired from the American Type Culture Collection. De-identified clinical MRSA isolates were selected at random from the clinical isolate strain bank at Barnes-Jewish Hospital, St. Louis, MO, USA. Minimal inhibitory concentration (MIC) assays for inhibition of growth were performed following the recommendations of the Clinical and Laboratory Standards Institute (CLSI)^43. Briefly, 23 antibacterial compounds (Supplemental Table 1) were selected based on coverage of all major drug classes, including three compounds not classified as antibiotics for human use, but with known antibacterial properties. Compounds were dissolved in dimethyl sulfoxide (DMSO) to a stock concentration of 50 mg/ml. Exceptions: Sulfometuron at 20 mg/ml in DMSO; Tobramycin, D-cycloserine, and colistin at 50 mg/ml in H2O and filtered at 2 μm. The 23 compounds were formulated into all 253 possible unique pairwise combinations at fixed ratios and at 100× concentrations in solvent. To increase the range of concentrations assayed for possible synergistic or antagonistic drug interactions (>2,000-fold), the drug stocks were arrayed into threefold dilution series down eight rows in 96-well Costar master drug plates, using a BioMek FX robotic liquid handler (Beckman Coulter, Inc.). Drugs were then mixed 1:100 into 96-well plates containing 200 μl/well of cation-adjusted Mueller-Hinton broth (CAMHB). All drug susceptibility assay wells were inoculated with ˜1 μl of mid-log phase bacterial culture at 0.5 McFarland standard (˜2×10^8 CFU/ml) and grown at 37° C. for 24 h. Endpoint growth at 37° C. after 24 h was determined by optical density at 600 nm ≥0.1 using a Synergy H1 reader (BioTek, Inc.).
# Synergy of antibiotic combinations was determined using the fractional inhibitory concentration index (FICI) method ^57,58. By this method, the MIC of the antibiotic compound in combination is divided by the MIC of the compound alone, yielding the fractional contribution of each drug component in the combination. Quotients for all in a combination are summed and drug interactions scored using the formula: FICI=(MIC Acomb A B C)/MICagent A+(MIC Bcomb A B C)/MICagent B+(MIC Ccomb A B C)/MICagentC Select pairwise combinations against MRSA were then combined with each of the 21 remaining single drugs to make triple combinations, formulated and tested in identical fashion to the double combinations. Synergy of combinations was confirmed via triplicate measurements of drug conditions at the MIC. Based on its high synergy against MRSA N315 in the sparse screening, ME/PI/TZ and its constituents were selected for further characterization. Final susceptibility testing of ME/PI/TZ and its components was performed using twofold dilution from 128 to 2 μg/ml for each component
# [2] = system: MRSA N315; test: Neutropenic mouse peritonitis model of MRSA infection; type: in vivo, mice; conditions: for Result (Alive/Dead) / Result (survivors per group): 6 doses; for Result (Alive/Dead): one line per mouse; for Result (survivors per group): six days post-infection
# From the text: In vivo mouse model of MRSA infection: Animals. Outbred ICR female mice (6-8 weeks old, 17-25 g body weight; Harlan Laboratories, Inc., Indianapolis, IN, USA) were used. Mice were given Teklad 2019 Extruded Rodent Diet (Harlan Laboratories, Inc., Indianapolis, IN, USA) and water ad libitum. Mice were maintained in polycarbonate shoebox cages containing corncob (The Andersons, Inc., Maumee, OH, USA) and Alpha-dri (Shepherd Specialty Papers, Inc., Richland, MI, USA) bedding under 12-h light/12-h dark cycle at 22±1° C. All procedures involving animals were approved by the University of Notre Dame Institutional Animal Care and Use Committee.
# Neutropenic mouse peritonitis model of MRSA infection. Doses of cyclophosphamide (100 μl of 50 mg/ml in 0.9% saline corresponding to 200 mg/kg; Alfa Aesar, Ward Hill, MA, USA) were given intraperitoneally (IP) at 4 days and 1 day prior to infection. The S. strain N315 was streaked onto Brain-Heart Infusion (BHI; Becton Dickson and Company, Sparks, MD, USA) agar and grown overnight at 36° C. The MRSA N315 bacterial inoculum was adjusted to approximately 1×10^8 CFU/ml (corresponding to OD540=0.5), then diluted to give 2×10^7CFU/ml. A 10% porcine mucin (Sigma-Aldrich, St. Louis, MO, USA) suspension was prepared and adjusted to pH 7. Immediately prior to infection, the bacterial inocula were diluted 1:1 with 10% mucin to a final concentration of 1×10^7CFU/ml in 5% mucin. The mice were then infected IP with 0.5 ml of this inoculum. In vivo dosing of compounds in mice was compared with mean or range peak human plasma concentrations of studied β-lactams^44,46,47,62,63.
# Antibiotic preparation. Meropenem was obtained from AK Scientific, Inc. (Union City, CA, USA), piperacillin and tazobactam were obtained from Sigma-Aldrich Co. (St. Louis, MO, USA). Linezolid (CAS 165800-03-3) was obtained from AmplaChem (Carmel, IN, USA). Antibiotics were dissolved at a concentration of 16.67 mg/ml in 30% DMSO/30% propylene glycol/40% water. Linezolid was used as positive control and was prepared at 7.5 mg/ml. Vehicle (30% DMSO/30% propylene glycol/40% water) was included as negative control. The dosing formulations were sterilized by passing through 0.2 μm filter prior to injection.
# (§2) Bacterial isolation from blood. Blood samples were checked for bacterial growth by plating and liquid culture. Whole blood (100 μl, three samples per group) was spread onto Brain-Heart Infusion (BHI) agar plates and incubated at 36° C. overnight. Colonies were counted and three colonies were selected, grown overnight in liquid BHI culture at 36° C., then mixed 1:1 with 30% LB-glycerol and stored at −80° C. The remaining three blood samples of each group (50 μl) was added to 5 ml BHI broth and incubated overnight at 36° C. When growth was noted, cultures were mixed 1:1 with 30% LB-glycerol and stored at −80° C.
# Statistical Analyses: Data for minimal inhibitory concentrations (MICs) are derived from triplicate measurements. Adaptation data are taken from two replicate experiments for each drug combination condition. Data for qRT-PCR expression profiling are derived from three replicate experiments taken from three biological replicates each, with standard error of measurement calculated. Mice were treated in groups of six, and growth determination of bacteria determined via plate and broth culture in triplicate. Fisher's Exact test with Bonferroni correction was used for 8 independent tests (comparing each treatment to 610 vehicle).
# [3] = system: MRSA N315; test: Adaptation and cross-resistance assays (11-day passage); type: cell-based, Staphylococcus aureus
# Procedure: Adaptation and Cross-resistance Assays: 414 MRSA N315 was grown in 150 μl/well of CAMHB with constant shaking at 37° C. and passaged over 11 days in identical 96-well plates containing replicate threefold dilutions of ME/PI/TZ, ME/PI, ME/TZ, PI/TZ, ME, PI, and TZ. Top concentrations of drug combinations were 33.3 μg/ml for each component, while top concentrations for single drugs was 100 μg/ml. To test for cell viability, at the end of the assay on day 11, all wells from the plate were pinned with a sterile 96-pin replicator and transferred to CAMHB only. After passage, plates were filled 1:1 with 30% CAMHB/glycerol and frozen at −80° C. for later analysis.
# Growth rate of isolates over passages in each condition was determined by linear best-fit of logarithm-converted exponential growth phase. […] Adapted isolates were retrospectively chosen from each combination or single compound in wells showing an increase in MIC or growth rate, frozen isolates were streaked out on agar plates to obtain single colonies, re-grown in broth conditions identical to those in which they grew originally, and then re-inoculated in sterile 96-well plates identical to the original 11-day 431 plates.
# [4] = system: mecA; test: Expression profiling with qRT-PCR; type: cell-based, Staphylococcus aureus; conditions: wild-type MRSA N315, relative to gyrB
# Procedure: Expression profiling with qRT-PCR: Wild-type and adapted MRSA N315 isolates were grown in triplicate in 100 ml flasks to mid-log phase in CAMHB +/−piperacillin at 11.1 μg/ml or tazobactam at 33.3 μg/ml. To harvest cells at mid-log phase, each culture flask was split into 2×50 ml screw-cap tubes, spun down at 4° C. for 10 min at 3500 rpm, supernatant removed, and pellets combined carefully with a 2 ml serological pipette. 1 ml RNAprotect Bacteria Reagent (Qiagen, Valencia, CA, USA) was added to pellets to stabilize the RNA, vortexed briefly, and incubated for 5 min at RT. After incubation, tubes were spun again at 4° C. for 10 min at 3500 rpm, supernatant removed, and the pellets were stored at −80° C. […]
# CFX protocol: 2 min@50° C., 2 min@95° C., (15 s@95° C., 1 min@60° C.)×40 cycles. Gene expression was determined using the ΔΔCt method of normalized quantitation 60, where Ct indicates the cycle number at which exponential growth phase increases above threshold fluorescence signal.
# [5] = system: MRSA N315; test: In vitro MICs and FICI for MRSA N315 after passage in vivo; type: cell-based, Staphylococcus aureus
# From the text: We tested MRSA N315 cultures from blood drawn from mice treated with meropenem, piperacillin, or vehicle for their in vitro MICs against ME/PI/TZ and its constituent single drugs to determine whether adaptation occurred during passage in vivo. All four tested isolates of MRSA N315 had identical MICs for the triple ME/PI/TZ and all constituent drugs, and thus identical synergy (Table 6B).
# as §1, §2
# [6] = 67 mg/kg (of each) every 8 hrs SC
compound,measurement,setting,value
CC[C@H]1OC(=O)[C@H](C)[C@@H](O[C@H]2C[C@@](C)(OC)[C@@H](O)[C@H](C)O2)[C@H](C)[C@@H](O[C@@H]2O[C@H](C)C[C@H](N(C)C)[C@H]2O)[C@](C)(O)C[C@@H](C)CN(C)[C@H](C)[C@@H](O)[C@]1(C)O [Azithromycin],MIC,[1]; single compounds,> 200 mg/L
C[C@H]1[C@H](NC(=O)/C(=N\OC(C)(C)C(=O)O)c2csc(N)n2)C(=O)N1S(=O)(=O)O [Aztreonam],MIC,[1]; single compounds,> 500 mg/L
CO/N=C(\C(=O)N[C@@H]1C(=O)N2C(C(=O)[O-])=C(C[N+]3(C)CCCC3)CS[C@H]12)c1csc(N)n1 [Cefepime],MIC,[1]; single compounds,100 mg/L
O=C(N[C@H](CO)[C@H](O)c1ccc([N+](=O)[O-])cc1)C(Cl)Cl [Chloramphenicol],MIC,[1]; single compounds,11.1 mg/L
CCC[C@@H]1C[C@@H](C(=O)N[C@@H]([C@H]2O[C@H](SC)[C@H](O)[C@@H](O)[C@H]2O)[C@H](C)Cl)N(C)C1 [Clindamycin],MIC,[1]; single compounds,> 500 mg/L
N[C@@H]1CONC1=O [D-Cycloserine],MIC in MRSA N315,[1]; single compounds,56 mg/L
CCN(CC)C(=S)SSC(=S)N(CC)CC [Disulfiram],MIC,[1],11.1 mg/L
Cc1ccc(C)c(OCCCC(C)(C)C(=O)O)c1 [Gemfibrozil],MIC,[1]; single compounds,> 200 mg/L
C[C@H]1COc2c(N3CCN(C)CC3)c(F)cc3c(=O)c(C(=O)O)cn1c23 [Levofloxacin],MIC,[1]; single compounds,0.4 mg/L
CC(=O)NC[C@H]1CN(c2ccc(N3CCOCC3)c(F)c2)C(=O)O1 [Linezolid],MIC,[1]; single compounds,3.7 mg/L
same,bacteria in blood taken at 11 h post-infection,[2]; 30 mg/kg,zero plated colonies and no growth in liquid cultures
same,Result (Alive/Dead),[2]; 30 mg/kg every 8 hrs SC,Alive
same,Result (survivors per group),[2]; 30 mg/kg every 8 hrs SC,6/6
same,survival for six days post-infection,"[2]; 30 mg/kg, n=6/group",All mice
same,p versus vehicle (Fisher's exact test),"[2]; survival, n=6/group",0.02
C/C(=C\C(=O)OCCCCCCCCC(=O)O)C[C@@H]1OC[C@H](C[C@@H]2O[C@H]2[C@@H](C)[C@H](C)O)[C@@H](O)[C@H]1O [Mupirocin],MIC,[1]; single compounds,0.4 mg/L
CO[C@H]1/C=C/O[C@@]2(C)Oc3c(C)c(O)c4c(O)c(c(/C=N/N5CCN(C)CC5)c(O)c4c3C2=O)NC(=O)/C(C)=C\C=C\[C@H](C)[C@H](O)[C@@H](C)[C@@H](O)[C@@H](C)[C@H](OC(C)=O)[C@@H]1C [Rifampin],MIC,[1]; single compounds,0.4 mg/L
Cc1cc(NS(=O)(=O)c2ccc(N)cc2)no1 [Sulfamethoxazole],MIC,[1]; single compounds,100 mg/L
Cc1cc(C)nc(NC(=O)NS(=O)(=O)c2ccccc2C(=O)O)n1 [Sulfometuron],MIC,[1],> 200 mg/L
C[C@]1(Cn2ccnn2)[C@H](C(=O)O)N2C(=O)C[C@H]2S1(=O)=O [Tazobactam],MIC,[1]; single compounds,128 mg/L
same,collateral effect on susceptibility,[3]; MRSA N315 after exposure to any other single or double compounds,no collateral sensitivity
same,Result (Alive/Dead),[2]; [6],Dead
same,Result (survivors per group),[2]; [6],0/6
same,mice that succumbed to the infection,"[2]; most within 48 h, 67 mg/kg (of each)",all mice
same,induction of mecA expression,[4],strong inducer of mecA
same,MIC,"[5]; Staphylococcus aureus, MRSA",100 mg/L
same,MIC,[5]; Wild-type N315,100 mg/L
same,MIC,[5]; colonies from mice given PI,100 mg/L
same,MIC,[5]; colonies from mice given Vehicle,100 mg/L
CN(C)c1cc(NC(=O)CNC(C)(C)C)c(O)c2c1C[C@H]1C[C@H]3[C@H](N(C)C)C(O)=C(C(N)=O)C(=O)[C@@]3(O)C(O)=C1C2=O [Tigecycline],MIC,[1],0.4 mg/L
NC[C@H]1O[C@H](O[C@H]2[C@H](O)[C@@H](O[C@H]3O[C@H](CO)[C@@H](O)[C@H](N)[C@H]3O)[C@H](N)C[C@@H]2N)[C@H](N)C[C@@H]1O [Tobramycin],MIC,[1]; single compounds,> 500 mg/L
COc1cc(Cc2cnc(N)nc2N)cc(OC)c1OC [Trimethoprim],MIC,[1]; single compounds,6.2 mg/L
CN[C@H](CC(C)C)C(=O)N[C@H]1C(=O)N[C@@H](CC(N)=O)C(=O)N[C@H]2C(=O)N[C@H]3C(=O)N[C@H](C(=O)N[C@H](C(=O)O)c4cc(O)cc(O)c4-c4cc3ccc4O)[C@H](O)c3ccc(c(Cl)c3)Oc3cc2cc(c3O[C@@H]2O[C@H](CO)[C@@H](O)[C@H](O)[C@H]2O[C@H]2C[C@](C)(N)[C@H](O)[C@H](C)O2)Oc2ccc(cc2Cl)[C@H]1O [Vancomycin],MIC,[1],0.4 mg/L
CC1(C)S[C@@H]2[C@H](NC(=O)[C@H](N)c3ccc(O)cc3)C(=O)N2[C@H]1C(=O)O [amoxicillin],collateral effect on susceptibility,[3]; MRSA N315 after prior exposure/adaptation to meropenem,sensitizing
Bleomycin,MIC in MRSA N315,[1]; single compounds,>500 mg/L
Colistin,MIC in MRSA N315,[1]; single compounds,500 mg/L
